In ChEMBL document CHEMBL4507319 (2021):

Columns and labels:
Settings in all cases: Compound concentration 1.0 uM
[1] = target: T1, Inhibitor of nuclear factor kappa-B kinase subunit beta (Homo sapiens) (UniProt O14920); experiment: IKKbeta(h) Eurofins kinase panel
T1 sequence (whole entry): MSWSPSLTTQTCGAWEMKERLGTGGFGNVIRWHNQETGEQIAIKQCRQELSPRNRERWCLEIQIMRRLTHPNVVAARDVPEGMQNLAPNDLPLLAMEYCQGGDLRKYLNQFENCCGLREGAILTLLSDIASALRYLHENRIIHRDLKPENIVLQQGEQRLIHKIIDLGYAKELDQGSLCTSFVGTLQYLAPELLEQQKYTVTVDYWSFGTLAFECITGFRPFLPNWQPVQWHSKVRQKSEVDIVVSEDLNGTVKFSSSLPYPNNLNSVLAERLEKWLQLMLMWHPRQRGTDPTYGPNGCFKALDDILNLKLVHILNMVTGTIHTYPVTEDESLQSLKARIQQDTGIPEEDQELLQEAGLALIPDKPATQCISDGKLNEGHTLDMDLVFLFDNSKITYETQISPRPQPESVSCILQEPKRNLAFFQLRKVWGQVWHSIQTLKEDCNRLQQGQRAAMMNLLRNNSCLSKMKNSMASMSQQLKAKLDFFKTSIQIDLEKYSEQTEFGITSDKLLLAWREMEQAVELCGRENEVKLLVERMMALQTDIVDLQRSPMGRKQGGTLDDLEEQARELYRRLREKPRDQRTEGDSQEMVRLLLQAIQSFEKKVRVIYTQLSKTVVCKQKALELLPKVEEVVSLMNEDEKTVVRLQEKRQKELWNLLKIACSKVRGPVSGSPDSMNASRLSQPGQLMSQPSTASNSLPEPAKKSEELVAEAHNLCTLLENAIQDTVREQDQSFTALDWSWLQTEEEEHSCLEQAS

[2] = target: Serine/threonine-protein kinase Nek6 (Homo sapiens) (UniProt Q9HC98); experiment: NEK6(h) Eurofins kinase panel
Chain of Serine/threonine-protein kinase Nek6 (Homo sapiens) (Q9HC98 whole entry): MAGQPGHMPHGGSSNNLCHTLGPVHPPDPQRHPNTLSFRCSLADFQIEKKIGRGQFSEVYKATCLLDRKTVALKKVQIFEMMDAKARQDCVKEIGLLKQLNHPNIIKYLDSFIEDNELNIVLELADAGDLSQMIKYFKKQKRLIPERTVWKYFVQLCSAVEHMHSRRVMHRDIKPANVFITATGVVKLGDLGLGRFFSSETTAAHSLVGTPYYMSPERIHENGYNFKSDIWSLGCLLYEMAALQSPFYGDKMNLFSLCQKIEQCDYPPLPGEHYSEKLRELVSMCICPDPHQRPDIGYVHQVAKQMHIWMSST

[3] = target: T2, Interleukin-1 receptor-associated kinase 4 (Homo sapiens) (UniProt Q9NWZ3); experiment: IRAK4(h) Eurofins kinase panel
T2 sequence (whole entry): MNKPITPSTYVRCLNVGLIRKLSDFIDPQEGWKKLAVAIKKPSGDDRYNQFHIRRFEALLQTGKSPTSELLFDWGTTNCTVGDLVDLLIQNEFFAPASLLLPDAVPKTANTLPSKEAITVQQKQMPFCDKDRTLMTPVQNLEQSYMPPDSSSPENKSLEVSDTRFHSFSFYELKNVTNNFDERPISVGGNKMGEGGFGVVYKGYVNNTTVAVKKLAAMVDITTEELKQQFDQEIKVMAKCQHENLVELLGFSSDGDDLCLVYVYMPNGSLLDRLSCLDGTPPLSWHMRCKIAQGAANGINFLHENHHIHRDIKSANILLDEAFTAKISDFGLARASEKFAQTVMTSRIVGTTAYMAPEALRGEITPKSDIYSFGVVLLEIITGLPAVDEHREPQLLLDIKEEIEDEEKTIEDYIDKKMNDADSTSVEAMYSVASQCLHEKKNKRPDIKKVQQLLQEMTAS

[4] = target: Serine/threonine-protein kinase mTOR (Homo sapiens) (UniProt P42345); experiment: mTOR(h) Eurofins kinase panel
[5] = target: T3, Mitogen-activated protein kinase kinase kinase 7 (Homo sapiens) (UniProt O43318); experiment: TAK1(h) Eurofins kinase panel
T3 sequence (whole entry): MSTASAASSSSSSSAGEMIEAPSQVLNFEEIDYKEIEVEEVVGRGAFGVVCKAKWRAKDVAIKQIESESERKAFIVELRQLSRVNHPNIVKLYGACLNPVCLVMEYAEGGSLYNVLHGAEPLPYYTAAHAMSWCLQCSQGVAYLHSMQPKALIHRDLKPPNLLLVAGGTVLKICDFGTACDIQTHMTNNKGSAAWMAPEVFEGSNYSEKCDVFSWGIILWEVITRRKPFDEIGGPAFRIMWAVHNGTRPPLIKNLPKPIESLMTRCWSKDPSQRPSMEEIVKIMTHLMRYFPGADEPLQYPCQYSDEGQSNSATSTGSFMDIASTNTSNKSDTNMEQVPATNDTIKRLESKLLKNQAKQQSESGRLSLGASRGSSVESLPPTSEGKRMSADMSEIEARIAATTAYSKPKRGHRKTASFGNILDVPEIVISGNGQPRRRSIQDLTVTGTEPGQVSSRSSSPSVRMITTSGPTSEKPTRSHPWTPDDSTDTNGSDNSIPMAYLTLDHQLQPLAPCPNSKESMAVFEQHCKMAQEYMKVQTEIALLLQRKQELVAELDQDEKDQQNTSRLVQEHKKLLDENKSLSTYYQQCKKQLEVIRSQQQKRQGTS

[6] = target: T4, Serine/threonine-protein kinase Chk1 (Homo sapiens) (UniProt O14757); experiment: CHK1(h) Eurofins kinase panel
T4 sequence (whole entry): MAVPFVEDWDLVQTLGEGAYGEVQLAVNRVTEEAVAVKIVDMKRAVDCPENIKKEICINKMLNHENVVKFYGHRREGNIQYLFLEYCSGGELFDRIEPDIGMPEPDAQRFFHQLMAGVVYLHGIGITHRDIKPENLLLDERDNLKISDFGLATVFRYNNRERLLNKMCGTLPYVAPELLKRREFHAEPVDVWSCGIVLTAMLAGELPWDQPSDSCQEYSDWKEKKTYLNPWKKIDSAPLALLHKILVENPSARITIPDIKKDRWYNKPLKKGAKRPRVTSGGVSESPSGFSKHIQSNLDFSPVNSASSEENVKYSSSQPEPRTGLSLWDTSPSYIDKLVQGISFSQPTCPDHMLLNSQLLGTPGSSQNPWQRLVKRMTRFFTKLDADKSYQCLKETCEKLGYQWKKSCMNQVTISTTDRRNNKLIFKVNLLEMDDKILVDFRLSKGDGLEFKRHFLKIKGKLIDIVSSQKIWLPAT

Measured: % residual kinase activity

CCc1ccccc1C(=O)Nc1n[nH]c2c(C)c(F)c(C3C(C#N)=C(C)N(C)C(C)=C3C#N)cc12 [BAY-3827]
inactive: [1] 106% | [2] 94% | [3] 103% | [4] 116% | [5] 104% | [6] 112%
